The values that follow come from patent publication US7399761B2, “Phthalazine derivatives with angiogenesis inhibiting activity” (Novartis AG, priority 2001, dated 2008).

One data set deals with T1, Cyp2C9 (Homo sapiens, UniProt P11712).
T1 construct: host or cells: insect cells (named in the general description as the expression system for P450 cDNAs)
As to the kind of experiment: CyP450-Inhibition, recombinant Cytochrome P450 isoenzymes, fluorometric assay. The class given is in vitro ADME. The conditions noted are these: for IC50: recombinant CyP 450 enzyme, fluorescence-labelled substrate. An excerpt:
(§1) This can be shown according to the following test system: Human liver microsomes or high level expression of cDNAs encoding Cytochrome P450 in insect cells provide a flexible source of materials for several in vitro measurement methods. A microtiter plate-based, direct fluorometric assay for the activities of any one or more of the principal drug metabolizing enzymes CYP1A2, CYP2C8, CYP2C9, CYP2C19, CYP2D6 and/or CYP3A4 is used in order to assess the potential for drug candidates to inhibit cytochrome P450.
(§2) Fluorescent marker substrates are incubated at concentrations close to their Michaelis-Men-ten affinity constant, Km. Inhibitors are tested in the 1 to 10 μM concentration range. 50% inhibition concentration (IC50 values) are estimated by non-linear regression of a two parameter model equation where the lower data limit is 0, i.e. the data are background corrected, and the upper data limit is 100, i.e. the data are range corrected. The equation assumes that y falls with increasing x. […] Extrapolation or interpolation of IC50 values beyond the concentration range studied are not provided.
(§3) Details for the assays and the technology that forms the basis for the assays are known (see C. L. Crespi et al., Analytical Biochemistry 248, 188-190 (1997), and CIL. Crespi et al., J. Pharmacol. Toxicol. Methods 44, 325-331 (2000), and the references mentioend therein). For example, 3-cyano-7-ethoxycoumarin is used as fluorescent substrate for CyP1A2, CYP2C9, CYP2C19 and CYP2D6, 7-methoxy-4-trifluoromethylcoumarin is used for CYP2C9, resorufin benzyl ether for CYP3A4, 3-82-(N,N-diethyl-N-methylammonium)ethyl]-7-methoxy-4-methylcoumarin for CYP2D6.
(§4) By the help of recombinant CyP 450 enzymes, the corresponding IC50 values for the compounds of formula I are determined. […] Description of the Assay: Fluorescence-labelled substrate compounds are incubated with different concentrations of test compound of formula I with recombinant Cytochrome P450 Isoenzymes. […] For details see above in the general description.

The next data set concerns the target T2, Cyp2C8 (Homo sapiens, UniProt P10632).
T2 construct: host or cells: insect cells (named in the general description as the expression system for P450 cDNAs)
T2 sequence (P10632 1-490): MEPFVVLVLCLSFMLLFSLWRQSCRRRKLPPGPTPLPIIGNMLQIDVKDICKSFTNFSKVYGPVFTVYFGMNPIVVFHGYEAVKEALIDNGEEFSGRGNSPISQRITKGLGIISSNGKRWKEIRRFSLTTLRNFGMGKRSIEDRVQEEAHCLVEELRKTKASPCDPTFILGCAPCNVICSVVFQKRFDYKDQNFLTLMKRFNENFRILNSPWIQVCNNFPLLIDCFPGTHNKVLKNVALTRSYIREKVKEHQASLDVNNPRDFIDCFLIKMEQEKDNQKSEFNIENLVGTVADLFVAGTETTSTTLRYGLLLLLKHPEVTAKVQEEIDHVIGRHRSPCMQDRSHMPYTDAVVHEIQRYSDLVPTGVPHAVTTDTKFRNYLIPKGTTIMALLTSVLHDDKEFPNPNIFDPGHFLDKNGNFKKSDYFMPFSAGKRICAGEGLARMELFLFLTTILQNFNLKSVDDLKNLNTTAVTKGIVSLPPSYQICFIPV
Described as above. The data set is classed as in vitro ADME. The conditions noted are these: for IC50: recombinant CyP 450 enzyme, fluorescence-labelled substrate.
Description: as §1, §2, §3, §4

Another data set has as its target T3, Cyp3A4 (Homo sapiens, UniProt P08684).
T3 construct: host or cells: insect cells (named in the general description as the expression system for P450 cDNAs)
The data set is described as above. The data set is classed as in vitro ADME. The note with it: for IC50: recombinant CyP 450 enzyme, fluorescence-labelled substrate.
Description: as §1, §2, §3, §4

In data set [1] the target is T4, Flt-1 VEGF-receptor tyrosine kinase (Homo sapiens, UniProt P17948).
T4 construct: 10 ng of the kinase domain of Flt-1
T4 sequence (P17948 827-1158 limits assumed): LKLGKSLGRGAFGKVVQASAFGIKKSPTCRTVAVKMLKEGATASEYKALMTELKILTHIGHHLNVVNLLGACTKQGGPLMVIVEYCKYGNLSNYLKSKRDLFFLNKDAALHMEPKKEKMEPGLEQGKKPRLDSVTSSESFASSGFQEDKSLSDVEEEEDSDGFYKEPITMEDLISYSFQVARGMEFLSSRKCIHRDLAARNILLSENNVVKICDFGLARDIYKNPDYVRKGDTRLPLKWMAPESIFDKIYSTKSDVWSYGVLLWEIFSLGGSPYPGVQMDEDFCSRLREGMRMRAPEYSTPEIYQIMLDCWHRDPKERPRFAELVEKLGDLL
As to the kind of experiment: Test for activity against Flt-1 VEGF-receptor tyrosine kinase. The data set is classed as biochemical. The note with it: kinase domain of Flt-1, poly(Glu,Tyr) 4:1, 8 μM [33P]-ATP, 15 minutes at room temperature. The procedure:
Test for activity against VEGF-receptor tyrosine kinase: the test is conducted using Flt-1 VEGF-receptor tyrosine kinase. The detailed procedure is as follows: 30 μl kinase solution (10 ng of the kinase domain of Flt-1, Shibuya et al., Oncogene 5, 519-24 [1990]) in 20 mM Tris.HCl pH 7.6, 3 mM manganese dichloride (MnCl2), 3 mM magnesium chloride (MgCl2) and 3 μg/ml poly(Glu,Tyr) 4:1 (Sigma, Buchs, Switzerland), 8 μM [^33P]-ATP (0.2 μCi/batch), 1% dimethyl sulfoxide, and 0 to 50 μM of the compound to be tested are incubated together for 15 minutes at room temperature. The reaction is then ended by the addition of 10 μl 0.25 M ethylenediaminetetraacetate (EDTA) pH 7. Using a multichannel dispenser (LAB SYSTEMS, USA), an aliquot of 20 μl is applied to a PVDF (=polyvinyl difluoride) Immobilon P membrane (Millipore, USA), which is incorporated into a Millipore microtitre filter manifold, and connected to a vacuum. Following complete elimination of the liquid, the membrane is washed 4 times successively in a bath containing 0.5% phosphoric acid (H3PO4), incubated for 10 minutes each time while shaking, then mounted in a Hewlett Packard TopCount Manifold and the radioactivity measured after the addition of 10 μl Microscint® (β-scintillation counter liquid; Packard USA). […]
The IC50 values determined are given below, insofar as they have been accurately determined: […]

T3 sequence (P08684 whole entry): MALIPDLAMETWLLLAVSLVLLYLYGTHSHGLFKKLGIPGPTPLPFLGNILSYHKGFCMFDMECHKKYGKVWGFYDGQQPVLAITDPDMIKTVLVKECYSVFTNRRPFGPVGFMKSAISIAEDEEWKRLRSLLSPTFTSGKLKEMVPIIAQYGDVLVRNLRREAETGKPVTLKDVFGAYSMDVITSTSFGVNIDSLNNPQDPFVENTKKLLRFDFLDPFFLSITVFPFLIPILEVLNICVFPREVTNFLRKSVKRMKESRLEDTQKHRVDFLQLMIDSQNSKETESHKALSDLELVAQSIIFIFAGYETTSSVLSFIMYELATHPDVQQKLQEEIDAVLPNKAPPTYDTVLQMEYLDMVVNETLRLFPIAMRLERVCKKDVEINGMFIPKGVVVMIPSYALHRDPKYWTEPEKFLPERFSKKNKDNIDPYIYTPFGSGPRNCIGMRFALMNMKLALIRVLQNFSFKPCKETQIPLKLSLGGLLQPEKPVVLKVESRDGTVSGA
T1 sequence (P11712 whole entry): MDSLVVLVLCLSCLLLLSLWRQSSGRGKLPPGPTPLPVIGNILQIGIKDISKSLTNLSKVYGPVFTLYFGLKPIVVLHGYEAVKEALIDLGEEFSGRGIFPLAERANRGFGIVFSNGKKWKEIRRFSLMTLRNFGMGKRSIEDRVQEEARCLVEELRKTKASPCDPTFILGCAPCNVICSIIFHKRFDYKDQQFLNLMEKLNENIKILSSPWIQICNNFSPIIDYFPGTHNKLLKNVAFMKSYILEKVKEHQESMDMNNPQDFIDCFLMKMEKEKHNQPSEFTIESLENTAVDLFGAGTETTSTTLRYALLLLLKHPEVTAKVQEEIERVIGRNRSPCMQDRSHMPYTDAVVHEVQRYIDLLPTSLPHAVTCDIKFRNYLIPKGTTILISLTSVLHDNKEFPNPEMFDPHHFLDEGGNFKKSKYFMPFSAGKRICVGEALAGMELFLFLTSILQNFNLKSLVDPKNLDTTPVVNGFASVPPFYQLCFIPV

`CCc1ccc(Nc2nnc(Cc3ccncc3)c3ccccc23)cc1Br` [WO 00/59509 (Ex. 14 q), reference compound]: the half-maximal inhibitory concentration (IC50) (in general, the midpoint of a concentration-inhibition curve) on Cyp2C9 is less than 1 µM; on Cyp2C8, 5 µM; on Cyp3A4 it was less than 1 µM.
As for `CC(C)[C@H]1CC[C@H](Nc2nnc(Cc3ccnc(O)c3)c3ccccc23)CC1` [Example 1, trans 1-(4-Isopropyl-cyclohexylamino)4-[2-hydroxy-(pyridin-4-yl)methyl]-phthalazine], the melting point – broadly, the temperature of the solid-liquid transition – was 266 to 267 °C (dec.).
`CCc1ccc(Nc2nnc(Cc3ccnc(OC)c3)c3ccccc23)cc1Br` [Example 2 d), 1-(3-Bromo-4ethyl-anilino)-4-[2-methoxy-(pyridin-4-yl)-methyl]-phthalazine] displayed a half-maximal inhibitory concentration (IC50) in data set [1] of 1.9 µM.
In the case of `CCc1ccc(Nc2nnc(Cc3ccc(=O)[nH]c3)c3ccccc23)cc1Br` [Ex. 8], the “lower inhibition when compared with Ex. 14 q from WO 00/59509” value on Cyp2C9 (ratio of IC50 values), on Cyp2C8 (ratio of IC50 values) and on Cyp3A4 (ratio of IC50 values) was “more than two-fold” each time. The IC50 on Cyp2C9 was 3.5 µM; at Cyp2C8 it was more than 10 µM; on Cyp3A4, 2.8 µM.
With `COc1cc(Cc2nnc(N[C@H]3CC[C@H](C(C)C)CC3)c3ccccc23)ccn1` [Example 1 d)], it took 1.2 µM to reach half-maximal inhibition in data set [1] (IC50).
